Laboratory results published in patent US10617649B2 (Zhejiang Huahai Pharmaceutical Co., Ltd, priority 2016, dated 2020).

Tests used:
[1] = Stability of azacitidine solution as a function of the preparation temperature; type: physicochemical
[2] = Content of bacterial endotoxin; settings: excipient used in Example 3
[3] = temperature of azacitidine solution higher than 6° C.

Row | Structure (SMILES) | Stability of azacitidine in solution, compared between temperatures ([1]; solution prepared at 4-6° C. compared to 2-3° C.) | Stability of azacitidine in solution ([1]; temperature for preparing azacitidine solution controlled at 2-6° C.) | Content of azacitidine in solution [1, 3] | Related substances in solution [1, 3] | Content of bacterial endotoxin in excipient [2] [EU/g]
1 | Nc1ncn([C@@H]2O[C@H](CO)[C@@H](O)[C@H]2O)c(=O)n1 [azacitidine, Azacitidine] | the same stability | good stability | significantly decreased | significantly increased | –
2 | OC[C@@H](O)[C@@H](O)[C@H](O)[C@H](O)CO [mannitol, Mannitol] | – | – | – | – | 2.5
